{"source": "paper PMC10310857", "about": "(Nature Communications, 2023)", "key": {"[1]": {"test_system": "V. dahliae", "details": "in vivo"}, "[2]": {"test_system": "GhMPK6", "parameters": "species or system Gossypium hirsutum cv. Lvmian", "details": "in vivo"}, "[3]": {"test_system": "GhRbohD", "parameters": "species or system Gossypium hirsutum cv. Lvmian", "details": "in vivo"}, "[4]": {"test_system": "F. graminearum", "parameters": "species or system F. graminearum strain Fg-1 on soybean", "details": "in vivo"}, "[5]": {"test_system": "F. oxysporum", "parameters": "species or system F. oxysporum strain Fo-2 on soybean", "details": "in vivo"}, "[6]": {"test_system": "R. solani", "parameters": "species or system R. solani strain RS-1 on soybean", "details": "in vivo"}, "[7]": {"test_system": "P. striiformis f. sp. tritici (strain CYR32)", "parameters": "species or system P. striiformis f. sp. tritici on wheat", "details": "in vivo"}, "[8]": {"test_system": "V. dahliae strain V991", "format": "cell-based, Verticillium dahliae"}, "[9]": {"test_system": "F. graminearum strain Fg-1", "format": "cell-based"}, "[10]": {"test_system": "F. oxysporum strain Fo-2", "format": "cell-based"}, "[11]": {"test_system": "R. solani strain RS-1", "format": "cell-based"}, "[12]": {"test_system": "T. harzianum T27", "format": "cell-based, Trichoderma harzianum"}, "[13]": {"molecular_target": "BmCDA7 (Bombyx mori, UniProt H9JW44)", "sequence (H9JW44 16-364)": "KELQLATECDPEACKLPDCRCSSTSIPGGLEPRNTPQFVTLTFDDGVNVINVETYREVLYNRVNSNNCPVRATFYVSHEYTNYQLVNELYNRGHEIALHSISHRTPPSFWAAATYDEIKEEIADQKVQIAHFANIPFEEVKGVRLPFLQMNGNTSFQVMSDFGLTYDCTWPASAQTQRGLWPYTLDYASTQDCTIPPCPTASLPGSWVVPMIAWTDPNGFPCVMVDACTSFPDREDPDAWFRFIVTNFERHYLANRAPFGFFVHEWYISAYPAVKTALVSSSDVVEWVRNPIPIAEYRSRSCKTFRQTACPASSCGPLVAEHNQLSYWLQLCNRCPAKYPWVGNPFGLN", "text": "Effect o f BHA o n the activity of BmCDA7 from the insect Bombyx\nmori. Bars in all graphs represent mean values, whiskers represent mean ± SEM, and black"}, "[14]": {"molecular_target": "T1, VdPDA1 (Verticillium dahliae, UniProt G2X9U7)", "assay": "biochemical", "experimental": "The enzymatic activity of recombinantly expressed proteins was assayed using a fluorogenic labeling method[29]. The reaction mixture consisted of 100 μL of 100 nM testing enzyme and 0.5 mM (GlcNAc)3 in a 50 mM Hepes (pH 7.5) buffer. After incubation for 10 min at 30 °C, free amine production was measured using fluorescamine labeling and quantified with a glucosamine standard. All measurements were carried out in triplicate.\nThe compounds were screened to identify the small molecules inhibiting VdPDA1 and Pst_13661 using a liquid-handling robot. The compounds were prepared in a 96-well plate containing one compound per well at 10 mM each in 100% DMSO (except for BHA, which was dissolved in ddH2O). The plates were first diluted to 5 mM. The compounds were screened at 100 μM in 2% DMSO in a final reaction volume of 100 μL, containing 100 nM enzyme and 0.5 mM (GlcNAc)3 in 50 mM Hepes (pH 7.5) buffer. Negative enzyme-free controls and positive controls with and without DMSO were prepared. The plates were incubated at 30 °C for 10 min. All measurements were carried out in triplicate.\nFor the determination of the inhibition constants Ki, three substrate (GlcNAc)3 concentrations (0.5, 0.2, and 0.1 mM) and varied inhibitor concentrations were used. The Ki values were determined using Dixon plots[56]. In Dixon plots, the value of lines intersection that converges above the x-axis is denoted as Ki. […]"}, "[15]": {"molecular_target": "Pst_13661 (Puccinia striiformis f. sp. tritici, UniProt A0A0L0V0Y3, T32S)", "format": "biochemical"}, "[16]": {"molecular_target": "T1, VdPDA1", "format": "biochemical"}}, "note": "Several values for one entry are separate records, joined by “and”; a condition that tells them apart may be missing. Equal values may be shown once. Entries after “also recorded” stand apart in the source; their conditions may differ.", "data": [{"smiles": "O=C(NO)c1ccccc1", "note": "[Compound 1, benzohydroxamic acid]", "values": [{"measurement": "Fungal biomass on cotton plants", "setting": "[1]", "result": "significantly reduced"}, {"measurement": "Fungal biomass on cotton plants (Fig. 3c) Mean", "setting": "[1]", "result": "0.5294 and 0.2725"}, {"measurement": "Wilt symptoms of cotton plants", "setting": "[1]", "result": "did not exhibit wilt symptoms"}, {"measurement": "GhMPK6 expression in cotton roots", "setting": "[2]", "result": "upregulated"}, {"measurement": "GhRbohD expression in cotton roots", "setting": "[3]", "result": "upregulated"}, {"measurement": "Fungal biomass of soybean hypocotyls", "setting": "[4]", "result": "significantly reduced fungal biomass"}, {"measurement": "Lesions on soybean hypocotyls", "setting": "[4]", "result": "fewer lesions"}, {"measurement": "Fungal biomass of soybean hypocotyls", "setting": "[5]", "result": "significantly reduced fungal biomass"}, {"measurement": "Fungal biomass of soybean hypocotyls (Fig. 5h) Mean", "setting": "[5]", "result": "0.6738 and 0.6606 and 0.4822"}, {"measurement": "Lesions on soybean hypocotyls", "setting": "[5]", "result": "fewer lesions"}, {"measurement": "Fungal biomass of soybean hypocotyls", "setting": "[6]", "result": "significantly reduced fungal biomass"}, {"measurement": "Lesions on soybean hypocotyls", "setting": "[6]", "result": "fewer lesions"}, {"measurement": "Disease indices after P. striiformis f. sp. tritici infection of wheat plants", "setting": "[7]", "result": "greatly declined"}, {"measurement": "Colony morphology and hyphae growth of V. dahliae", "setting": "[8]", "result": "not affected"}, {"measurement": "Fungal growth (Fig. S3b), Mean", "setting": "[8]", "result": "3.65 and 3.60 and 3.58"}, {"measurement": "Fungal growth (Fig. S3b), Mean", "setting": "[9]", "result": "4.15 and 4.13 and 4.08"}, {"measurement": "Growth and morphology of F. graminearum", "setting": "[9]", "result": "normal morphology and developmental status; also recorded: does not affect the growth"}, {"measurement": "Fungal growth (Fig. S3b), Mean", "setting": "[10]", "result": "2.98 and 2.90 and 2.95"}, {"measurement": "Growth and morphology of F. oxysporum", "setting": "[10]", "result": "normal morphology and developmental status; also recorded: does not affect the growth"}, {"measurement": "Fungal growth (Fig. S3b), Mean", "setting": "[11]", "result": "3.03 and 3.13"}, {"measurement": "Growth and morphology of R. solani", "setting": "[11]", "result": "normal morphology and developmental status; also recorded: does not affect the growth"}, {"measurement": "Fungal growth (Fig. S3b), Mean", "setting": "[12]", "result": "3.65 and 3.63"}, {"measurement": "Growth of Trichoderma harzianum", "setting": "[12]", "result": "does not affect the growth"}, {"measurement": "Activity of BmCDA7 (Fig. S4), Mean", "setting": "[13]", "result": "101.71 and 105.43"}, {"measurement": "Inhibition of insect chitin deacetylases", "setting": "[13]", "result": "could not inhibit"}, {"measurement": "Ki", "setting": "[14]", "result": 8.31, "unit": "µM"}]}, {"smiles": "O=C(O)c1cccc(C(=O)O)n1", "note": "[DPA]", "values": [{"measurement": "Fig. S1c enzyme activity, Exp1", "setting": "[15]", "result": 4.96}, {"measurement": "Fig. S1c enzyme activity, Exp2", "setting": "[15]", "result": 8.16}, {"measurement": "Fig. S1c enzyme activity, Exp3", "setting": "[15]", "result": 14.56}, {"measurement": "Fig. S1c enzyme activity, Mean", "setting": "[15]", "result": 9.23}, {"measurement": "Fig. S1d enzyme activity, Exp1", "setting": "[16]", "result": 0.31}, {"measurement": "Fig. S1d enzyme activity, Exp2", "setting": "[16]", "result": -0.24}, {"measurement": "Fig. S1d enzyme activity, Exp3", "setting": "[16]", "result": -0.41}, {"measurement": "Fig. S1d enzyme activity, Mean", "setting": "[16]", "result": -0.11}]}, {"smiles": "[Zn+2]", "note": "[Zn2+]", "values": [{"measurement": "Fig. S1c enzyme activity, Exp1", "setting": "[15]", "result": 97.91}, {"measurement": "Fig. S1c enzyme activity, Exp2", "setting": "[15]", "result": 92.55}, {"measurement": "Fig. S1c enzyme activity, Exp3", "setting": "[15]", "result": 105.61}, {"measurement": "Fig. S1c enzyme activity, Mean", "setting": "[15]", "result": 98.69}, {"measurement": "Fig. S1d enzyme activity, Exp1", "setting": "[16]", "result": 76.18}, {"measurement": "Fig. S1d enzyme activity, Exp2", "setting": "[16]", "result": 78.11}, {"measurement": "Fig. S1d enzyme activity, Exp3", "setting": "[16]", "result": 78.27}, {"measurement": "Fig. S1d enzyme activity, Mean", "setting": "[16]", "result": 77.52}]}, {"smiles": "[Ni+2]", "note": "[Ni2+]", "values": [{"measurement": "Fig. S1c enzyme activity, Exp1", "setting": "[15]", "result": 49.78}, {"measurement": "Fig. S1c enzyme activity, Exp2", "setting": "[15]", "result": 47.40}, {"measurement": "Fig. S1c enzyme activity, Exp3", "setting": "[15]", "result": 46.47}, {"measurement": "Fig. S1c enzyme activity, Mean", "setting": "[15]", "result": 47.88}, {"measurement": "Fig. S1d enzyme activity, Exp1", "setting": "[16]", "result": 36.44}, {"measurement": "Fig. S1d enzyme activity, Exp2", "setting": "[16]", "result": 38.96}, {"measurement": "Fig. S1d enzyme activity, Exp3", "setting": "[16]", "result": 38.03}, {"measurement": "Fig. S1d enzyme activity, Mean", "setting": "[16]", "result": 37.81}]}]}
